In patent US9067935B2 (Janssen Pharmaceutica, NV, priority 2010, dated 2015):
Several values for one entry are separate records, joined by “and”; a condition that tells them apart may be missing. Identical values can stand only once. Like-named read-outs stand apart in the source and are kept apart here.

Target: canine TRPM8 (Canis lupus familiaris, UniProt Q1A7N1)
Assay: In Vitro Canine TRPM8 Functional Assay (intracellular Ca2+ fluorescence, icilin challenge)
Format: cell-based
Details: for IC50: icilin at ~80% maximal response
Protocol: The functional activity of compounds of the formula (I) was determined by measuring changes in intracellular calcium concentration using a Ca^2+-sensitive fluorescent dye. The changes in fluorescent signal were monitored by a fluorescence plate reader, either a FLIPR™ (Molecular Devices) or FDSS (Hamamatsu).
At 24 hrs prior to assay, HEK293 cells stably expressing canine TRPM8 were seeded in culture medium in black wall, clear-base poly-D-lysine coated 384-well plates (BD Biosciences, NJ, USA) and grown overnight in 5% CO2 at 37° C. On assay day, growth media was removed and cells were loaded with Calcium 3 Dye (Molecular Devices) for 35 min at 37° C., under 5% CO2 and then for 25 min at room temperature and atmosphere. Subsequently, cells were tested for agonist-induced increases in intracellular Ca^2+ levels using FLIPR™ or FDSS. Cells were challenged with a compound of the Formula (I) (at varying concentrations) and intracellular Ca^2+ was measured for 5 min prior to the addition of icilin to all wells to achieve a final concentration that produces approximately an 80% maximal response. EC50 or IC50 values for compounds of the present invention were determined from eight-point dose-response studies. Curves were generated using the average of quadruplicate wells for each data point.

[1] = HEK293 cells stably expressing canine TRPM8
[2] = HEK293, @ 0.2 μM, HEK293 cells stably expressing canine TRPM8, read-out: % Inh (%) @ 0.2 μM
[3] = HEK293, read-out: % Inh (%) @ 0.2 μM

Chain of canine TRPM8 (Q1A7N1 1-1104): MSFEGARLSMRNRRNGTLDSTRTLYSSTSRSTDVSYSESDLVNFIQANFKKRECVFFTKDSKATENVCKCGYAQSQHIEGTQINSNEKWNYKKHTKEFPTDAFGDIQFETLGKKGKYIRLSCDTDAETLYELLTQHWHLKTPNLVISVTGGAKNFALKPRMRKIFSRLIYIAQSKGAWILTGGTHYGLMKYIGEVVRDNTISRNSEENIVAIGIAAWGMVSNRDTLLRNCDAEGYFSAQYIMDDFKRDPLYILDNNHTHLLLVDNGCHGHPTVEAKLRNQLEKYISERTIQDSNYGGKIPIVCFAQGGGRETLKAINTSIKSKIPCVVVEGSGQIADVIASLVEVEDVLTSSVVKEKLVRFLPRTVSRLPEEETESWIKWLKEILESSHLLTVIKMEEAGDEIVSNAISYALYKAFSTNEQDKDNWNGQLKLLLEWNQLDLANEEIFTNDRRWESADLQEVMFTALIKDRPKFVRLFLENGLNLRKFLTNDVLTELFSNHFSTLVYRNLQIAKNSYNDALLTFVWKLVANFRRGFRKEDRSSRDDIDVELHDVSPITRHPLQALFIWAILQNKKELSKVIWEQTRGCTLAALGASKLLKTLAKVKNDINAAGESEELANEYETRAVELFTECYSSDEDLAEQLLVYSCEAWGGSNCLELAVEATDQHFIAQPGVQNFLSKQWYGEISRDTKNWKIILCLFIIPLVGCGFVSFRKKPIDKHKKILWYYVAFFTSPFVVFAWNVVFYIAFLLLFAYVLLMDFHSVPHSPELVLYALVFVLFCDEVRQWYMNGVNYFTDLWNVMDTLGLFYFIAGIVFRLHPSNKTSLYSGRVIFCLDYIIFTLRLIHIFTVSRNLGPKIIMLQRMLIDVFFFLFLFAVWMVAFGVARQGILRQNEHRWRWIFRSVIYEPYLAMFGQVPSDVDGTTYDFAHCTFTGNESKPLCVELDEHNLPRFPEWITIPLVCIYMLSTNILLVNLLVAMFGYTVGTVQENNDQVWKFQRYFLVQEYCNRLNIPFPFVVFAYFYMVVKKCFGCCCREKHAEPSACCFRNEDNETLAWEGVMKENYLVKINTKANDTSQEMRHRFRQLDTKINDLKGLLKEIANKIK

| SMILES | IC50 [1] | inhibition at 0.2 µM [2] [%] | % Inh (%) @ 0.2 μM [1] [%] | inhibition at 0.2 µM [3] [%] |
| --- | --- | --- | --- | --- |
| O=S(=O)(c1ccccc1)N(Cc1ccc(F)c(C(F)(F)F)c1)c1nc2ccccn2c1Cl [Compound 1] | 0.00325 µM |  |  |  |
| O=S(=O)(c1ccccc1)N(Cc1ccc(F)c(F)c1)c1nc2ccc(Cl)cn2c1Cl [Compound 18] | 0.0786 µM |  |  |  |
| O=S(=O)(c1ccc(-n2cccn2)cc1)N(Cc1ccc(F)c(C(F)(F)F)c1)c1nc2ccccn2c1Br [Compound 79] | 0.00317 µM | 99 |  |  |
| O=S(=O)(c1ccc(F)cc1)N(Cc1ccc(F)c(C(F)(F)F)c1)c1nc2ccccn2c1Cl [Compound 10] | 0.0174 µM |  |  |  |
| O=S(=O)(c1ccc(N2CCOCC2)nc1)N(Cc1ccc(F)c(C(F)(F)F)c1)c1nc2ccc(Cl)cn2c1Cl [Compound 78] |  | 26 |  |  |
| Cc1cccn2c(C)c(N(Cc3cccc(C(F)(F)F)c3)S(=O)(=O)c3ccccc3)nc12 [Compound 34] | 0.00983 µM | 100 |  |  |
| Cc1cccn2c(C)c(N(Cc3ccc(OC(F)(F)F)cc3)S(=O)(=O)c3ccc(C(=O)[O-])cc3)nc12.[Na+] [Compound 117] | 0.0135 µM |  | 101 |  |
| Cc1cccn2c(C)c(N(Cc3ccc(F)c(C(F)(F)F)c3)S(=O)(=O)c3ccccc3)nc12 [Compound 31] | 0.0103 µM | 101 |  |  |
| O=S(=O)(c1ccc(-n2cccn2)cc1)N(Cc1ccc(C(F)(F)F)c(F)c1)c1nc2ccccn2c1Br [Compound 75] | 0.00194 µM | 99 |  |  |
| COC(=O)c1ccc(S(=O)(=O)N(Cc2ccc(OC(F)(F)F)cc2)c2nc3ccc(F)cn3c2C)cc1 [Compound 118, Methyl 4-(N-(6-fluoro-3-methylimidazo[1,2-a]pyridin-2-yl)-N-(4-(trifluoromethoxy)benzyl)sulfamoyl)benzoate] | 0.018 µM | 100 |  |  |
| Cc1cccn2c(C)c(N(Cc3ccc(OC(F)(F)F)cc3)S(=O)(=O)c3ccccc3)nc12 [Compound 30] | 0.01 µM | 100 |  |  |
| CCc1c(N(Cc2cccc(C(F)(F)F)c2)S(=O)(=O)c2ccccc2)nc2c(C(F)(F)F)cccn12 [Compound 59] | 0.0802 µM | 97 |  |  |
| Cc1c(N(Cc2ccc(OC(F)(F)F)cc2)S(=O)(=O)c2ccc(C(=O)O)cc2)nc2ccc(Cl)cn12 [Compound 113, Sodium 4-(N-(6-Chloro-3-methylimidazo[1,2-a]pyridin-2-yl)-N-(4-trifluoromethoxybenzyl)sulfamoyl)benzoate] | 0.0146 µM |  |  | 102 |
| CC(C)c1c(N(Cc2ccc(C(F)(F)F)c(F)c2)S(=O)(=O)c2ccccc2)nc2ccccn12 [Compound 51] | 0.00656 µM | 101 |  |  |
| COC(=O)c1ccc(S(=O)(=O)N(Cc2ccc(OC(F)(F)F)cc2)c2nc3ccc(Cl)cn3c2C)cc1 [Compound 110, Methyl 4-(N-(6-Chloro-3-methylimidazo[1,2-a]pyridin-2-yl)-N-(4-trifluoromethoxybenzyl)sulfamoyl)benzoate] | 0.0572 µM | 82 |  |  |
| O=S(=O)(c1ccc(-n2cccn2)cc1)N(Cc1ccc(C(F)(F)F)c(F)c1)c1nc2ccccn2c1Cl [Compound 96] | 0.0055 µM | 100 |  |  |
| Cc1c(N(Cc2ccc(F)c(C(F)(F)F)c2)S(=O)(=O)c2ccc(-n3cccn3)cc2)nc2ccc(Cl)cn12 [Compound 102, N-(6-chloro-3-methylimidazo[1,2-a]pyridin-2-yl)-N-(4-fluoro-3-trifluoromethylbenzyl)-4-(1H-pyrazol-1-yl)benzenesulfonamide] | 0.0218 µM | 100 |  |  |
| CS(=O)(=O)N(Cc1ccc(OC(F)(F)F)cc1)c1nc2ccccn2c1Br [Compound 4] | 0.0167 µM |  |  |  |
| O=S(=O)(c1ccc(-n2cccn2)cc1)N(Cc1ccc(F)c(C(F)(F)F)c1)c1nc2ccccn2c1Cl [Compound 95] | 0.007 µM | 99 |  |  |
| O=S(=O)(c1ccccc1)N(Cc1cccc(C(F)(F)F)c1)c1nc2ccccn2c1C1CC1 [Compound 73] |  | 100 |  |  |
| O=S(=O)(c1ccccc1)N(Cc1ccc(C(F)(F)F)c(F)c1)c1nc2ccc(C(F)(F)F)cn2c1Cl [Compound 60, N-(3-Chloro-6-trifluoromethylimidazo[1,2-a]pyridin-2-yl)-N-(3-fluoro-4-trifluoromethylbenzyl)benzenesulfonamide] |  | 55 |  |  |
| O=S(=O)(c1ccccc1)N(Cc1ccc(OC(F)(F)F)cc1)c1nc2ccc(C(F)(F)F)cn2c1Cl [Compound 61] |  | 47 |  |  |
| CCc1c(N(Cc2ccc(F)c(C(F)(F)F)c2)S(=O)(=O)c2ccccc2)nc2c(C(F)(F)F)cccn12 [Compound 55, N-(3-Ethyl-8-trifluoromethylimidazo[1,2-a]pyridin-2-yl)-N-(4-fluoro-3-trifluoromethylbenzyl)benzenesulfonamide] | 0.0334 µM | 94 |  |  |

| SMILES | IC50 [1] | inhibition at 0.2 µM [2] [%] | % Inh (%) @ 0.2 μM [1] [%] | inhibition at 0.2 µM [3] [%] |
| --- | --- | --- | --- | --- |
| CCc1c(N(Cc2ccc(OC(F)(F)F)cc2)S(=O)(=O)c2ccc(-n3cccn3)cc2)nc2ccc(Cl)cn12 [Compound 89] | 0.025 µM | 99 |  |  |
| Cc1c(N(Cc2ccc(C(F)(F)F)c(F)c2)S(=O)(=O)c2ccccc2)nc2ccc(F)cn12 [Compound 21] | 0.0106 µM and 0.0124 µM |  |  |  |
| COC(=O)c1ccc(S(=O)(=O)N(Cc2ccc(OC(F)(F)F)cc2)c2nc3ccccn3c2C(C)C)cc1 [Compound 108] | 0.0104 µM |  | 101 |  |
| O=S(=O)(c1ccc(N2CCOCC2)nc1)N(Cc1ccccc1)c1nc2ccccn2c1Br [Compound 83] | 0.0746 µM | 87 |  |  |
| Cc1c(N(Cc2ccc(OC(F)(F)F)cc2)S(=O)(=O)c2ccccc2)nc2cc(Cl)ccn12 [Compound 14] | 0.0207 µM |  |  |  |
| CCc1c(N(Cc2ccc(C(F)(F)F)c(F)c2)S(=O)(=O)c2ccccc2)nc2c(C(F)(F)F)cccn12 [Compound 56] | 0.065 µM | 99 |  |  |
| O=S(=O)(c1ccc(N2CCOCC2)nc1)N(Cc1ccc(C(F)(F)F)cc1)c1nc2ccccn2c1Cl [Compound 93] | 0.0269 µM | 98 |  |  |
| Cc1c(N(Cc2ccc(OC(F)(F)F)cc2)S(=O)(=O)c2ccccc2)nc2ccccn12 [Compound 11] | 0.00568 µM |  |  |  |
| CCc1c(N(CCC2CC2)S(=O)(=O)c2ccccc2)nc2c(C(F)(F)F)cccn12 [Compound 63, N-(2-Cyclopropylethyl)-N-(3-ethyl-8-trifluoromethylimidazo[1,2-a]pyridin-2-yl)benzenesulfonamide] | 0.0241 µM | 99 |  |  |
| Cc1ccc2nc(N(Cc3ccc(OC(F)(F)F)cc3)S(=O)(=O)c3ccccc3)c(C)n2c1 [Compound 39] | 0.0289 µM | 99 |  |  |
| Cc1ccc2nc(N(Cc3ccc(C(F)(F)F)c(F)c3)S(=O)(=O)c3ccccc3)c(C)n2c1 [Compound 41] | 0.0253 µM | 100 |  |  |
| Cc1ccc2nc(N(Cc3ccc(C(F)(F)F)c(F)c3)S(=O)(=O)c3ccc(F)cc3)c(C)n2c1 [Compound 68] | 0.0416 µM | 100 |  |  |
| O=S(=O)(c1ccc(N2CCOCC2)nc1)N(Cc1ccc(F)c(C(F)(F)F)c1)c1nc2ccccn2c1Cl [Compound 90, N-(3-Chloroimidazo[1,2-a]pyridin-2-yl)-N-(4-fluoro-3-trifluoromethylbenzyl)-6-morpholin-4-yl-pyridine-3-sulfonamide] | 0.0269 µM | 99 |  |  |
| COC(=O)c1ccc(S(=O)(=O)N(Cc2ccc(OC(F)(F)F)cc2)c2nc3ccccn3c2Cl)cc1 [Compound 116] | 0.00529 µM | 102 |  |  |
| O=S(=O)(c1ccccc1)N(Cc1ccc(OC(F)(F)F)cc1)c1nc2ccccn2c1Br [Compound 5] | 0.0053 µM |  |  |  |
| Cc1c(N(Cc2ccc(OC(F)(F)F)cc2)S(=O)(=O)c2ccc(C(=O)O)cc2)nc2ccc(F)cn12 [Compound 120, Sodium 4-(N-(6-fluoro-3-methylimidazo[1,2-a]pyridin-2-yl)-N-(4-(trifluoromethoxy)benzyl)sulfamoyl)benzoate] | 0.0122 µM |  |  | 102 |
| Cc1c(N(Cc2ccc(OC(F)(F)F)cc2)S(=O)(=O)c2ccc(-n3cccn3)cc2)nc2ccc(Cl)cn12 [Compound 104] | 0.0516 µM | 93 |  |  |
| Cc1cccc2nc(N(Cc3ccc(C(F)(F)F)c(F)c3)S(=O)(=O)c3ccccc3)c(C)n12 [Compound 49] | 0.0133 µM | 99 |  |  |
| COC(=O)c1ccc(S(=O)(=O)N(Cc2ccc(F)c(C(F)(F)F)c2)c2nc3ccc(Cl)cn3c2C)cc1 [Compound 112] | 0.0821 µM | 83 |  |  |
| Cc1c(N(Cc2ccc(F)c(C(F)(F)F)c2)S(=O)(=O)c2ccccc2)nc2ccc(Cl)cn12 [Compound 37] | 0.0294 µM | 100 |  |  |
| Cc1c(N(Cc2ccc(OC(F)(F)F)cc2)S(C)(=O)=O)nc2ccc(F)cn12 [Compound 22] |  | 51 |  |  |
| O=S(=O)(c1ccc(N2CCOCC2)nc1)N(Cc1ccc(C(F)(F)F)c(F)c1)c1nc2ccccn2c1Cl [Compound 91] | 0.0416 µM | 99 |  |  |
| O=S(=O)(c1ccccc1)N(Cc1ccc(F)cc1)c1nc2ccc(Cl)cn2c1Cl [Compound 16] | 0.072 µM |  |  |  |
